Reference: patent US10517863B2, “Trilobine and its natural analogs for use as a drug” (PIERRE FABRE MEDICAMENT, priority 2015, dated 2019)

Legend:
[1] = test system: panel of cancer cell lines; assay: Anti-proliferative activity (ATPLite), whole panel; format: cell-based; conditions: Homo sapiens; range over the panel
Protocol: (§1) To measure the anti-proliferative properties of tested molecules, 2×10^4 cells are seeded at day 0 in a 96 wells plate. The compounds to be tested, stored at −20° C. as 10^−2 M stock solution in 100% DMSO, are freshly diluted on day 1 in the cell medium, before adding a dose range of 3.2 nM to 10 μM to the cells. The cell viability is assessed using the ATPLite kit from Perkin (ATPlite 1 Step Luminescence Assay System, ref 3016739), following the provider instructions. The raw data are analyzed with GraphPad Prism software (v4.03) to generate IC50 values corresponding to the compound concentrations giving 50% reduction in cell viability. The values presented are the mean results of at least two independent experiments. The standard errors are indicated.

[2] = test system: luciferase reporter under the control of a methylated CMV promoter in leukemia KG-1 cells; assay: CMV-luc reexpression (luciferase reporter) in KG-1 cells; format: cell-based, human; conditions: for Reactivation fold of luciferase gene reporter in KG-1 CMV-Luc: 24 hour incubation, fold induction vs DMSO, mean ± standard error
Protocol: Aiming at identifying new DNMT inhibitors, plant extract samples were tested for their ability to reactivate gene expression upon use of an integrated luciferase reporter system under the control of a methylated CMV promoter in leukemia KG-1 cells which inhibits its expression (CMV-luc assay reported in following Table). […] The extract was fractionated by preparative HPLC. Identification of the active components was accomplished by HRMS and NMR spectroscopy. The pure compounds isolated from the extract through bio-guided fractionation are trilobine and bisbenzylisoquinoline analogue products. The active compounds were then further evaluated for their ability to inhibit DNMTs in vitro and DNA methylation in cancer cells.
KG-1 cells were stably transfected with the firefly luciferase reporter gene (luc+ from pGL3; Promega) under the control of the cytomegalovirus (CMV) promoter (from pEGFP-N1; Clontech Laboratories Inc.) partially methylated (50%). 20,000 cells per well were seeded in a 96-well plate. After 24 hour incubation in the presence of the test compound or solvant (DMSO), the induction of the promoter was measured by quantification of the luciferase signal with the Brite-lite assay system (PerkinElmer) according to the manufacturer's protocol. The luminescence was measured on an EnVision multilabel plate reader (PerkinElmer), and the data are expressed as the fold induction as compared with the DMSO control. The mean of three experiments and the standard error is reported.

[3] = test system: P16 expression in colon cancer cells HCT116; assay: P16 reexpression by RT-qPCR; format: cell-based, human; conditions: at 100 nM, at 3 days
[4] = test system: KG-1; assay: Anti-proliferative activity (ATPLite); format: cell-based; conditions: Homo sapiens; KG-1, Leukaemia; +/− standard error; read-out: Antiproliferative activity EC50
Protocol: as §1

[5] = test system: HCT-116; assay: Anti-proliferative activity (ATPLite); format: cell-based; conditions: Homo sapiens; HCT-116, Colorectal; +/− standard error; read-out: Antiproliferative activity EC50
Protocol: as §1

[6] = test system: Karpass299; assay: Anti-proliferative activity (ATPLite); format: cell-based; conditions: Homo sapiens; Karpass299, Lymphoma; +/− standard error; read-out: Antiproliferative activity EC50
Protocol: as §1

[7] = test system: P16 promoter in colon cancer cells HCT116; assay: P16 (CDKN2A) promoter demethylation, COBRA; format: cell-based, human; conditions: at 0.1 μM
Protocol: Cancer cell lines (colon HCT116 or leukaemia KG1) were treated with the compounds as indicated in the Data Tables and then analysed as following.
DNA was isolated from cultured cells using the DNeasy Blood and Tissue Kit according to the manufacturer's specifications (Qiagen). DNA bisulphite conversion was performed on 2 μg of DNA using the EZ DNA Methylation-Gold Kit according to the manufacturer's specifications (Zymo Research) and bisulfited DNA was eluted with 10 μL of water. Two different techniques were used to analyse the DNA methylation profile after bisulfite conversion of genomic DNA: (A) cloning and sequencing or (B) COBRA. The primers for each promoter are specified in the Table 3.
This technique is a variation of bisulfite sequencing, and combines bisulfite conversion based polymerase chain reaction with restriction digestion. DNA methylation levels are easily and quickly measured without the need for laborious and costing more time sub-cloning and sequencing, as with bisulfite sequencing.
DNA amplification was set up with 100 ng eluted bisulfited DNA in 50 μl PCR reaction containing 1×PCR buffer, 2.5 mM MgCl2, 0.3 mM dNTPs, 400 nM each primer and 1.25 units EpiTaq HS (Takara) on C1000 Touch™ thermal cycler by 98° C. for 10 sec, 55° C. for 30 sec, 72° C. for 30 sec×40 cycles. 20 μL of PCR amplicons were digested in 30 μL by 2 units of BsiEI at 60° C. for 90 min. DNA fragments were migrated by 2% agarose gel electrophoresis and each band was quantified by Image Lab Software v2.0 (BioRad Laboratories).

[8] = molecular target: T1, human C-terminal DNMT3A (a.a. 623-908) (Homo sapiens, UniProt Q9Y6K1); assay: hDNMT3A restriction-based fluorescence assay; format: biochemical; conditions: read-out: hDNMT 3A inhibition, Inhibition (%)
T1 construct: The human C-terminal DNMT3A (a.a. 623-908); made in house
T1 sequence (Q9Y6K1 627-912): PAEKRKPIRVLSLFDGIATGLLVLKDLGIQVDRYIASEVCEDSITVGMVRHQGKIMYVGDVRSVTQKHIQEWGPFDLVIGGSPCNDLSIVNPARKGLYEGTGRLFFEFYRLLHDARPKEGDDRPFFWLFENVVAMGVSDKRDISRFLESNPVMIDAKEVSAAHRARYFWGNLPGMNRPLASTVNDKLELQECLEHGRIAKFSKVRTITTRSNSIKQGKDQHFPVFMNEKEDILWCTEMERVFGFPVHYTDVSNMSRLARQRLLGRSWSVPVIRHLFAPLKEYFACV
Description: hDNMT3A enzyme inhibition was adapted from the restriction-based fluorescence assay protocol as described in the literature (Ceccaldi et al. ChemBioChem 2011, 12, 1337-1345). Briefly, a 5′-labelled biotin oligonucleotide is hybridized to its complementary strand labelled with 6-carboxyfluorescein at the 3′-end into a 384 well microplate (black Optiplates; Perkin Elmer) pre-coated with avidin. The duplex contains a unique CpG site overlapping with a restriction site of a methylation sensitive restriction enzyme. The human C-terminal DNMT3A (a.a. 623-908), produced as described in the literature (Gros et al. Nucl. Acids Res. 2013, 41(19):e185), was added in each well (200 ng/well) and mixed with the chemical compounds at desired concentrations and freshly prepared AdoMet (20 μM final concentration) to start the reaction in a total volume of 50 μL. After 1 hour incubation at 37° C. each well were washed three times with PBS, Tween-20 0.05%, NaCl (500 mM) and three more times with PBST. Specific fluorescent signals were detected with the methylation-sensitive restriction enzyme HpyCH4IV (NEB) as described and measured on a Perkin Elmer Envision detector. The percentage of inhibition is reported. The formula used to calculate the percentage of inhibition is [(X−Y)/X]×100, where X is the signal determined in the absence of the inhibitor and Y is the signal obtained in the presence of the inhibitor. The concentration at which 50% of efficacy of inhibition is observed (EC50) was determined by analysis of a concentration range of the tested compound in triplicates. The non-linear regression fittings with sigmoidal dose-response (variable slope) were performed with GraphPad Prism 4.03 (GraphPad Software).

COc1ccc2cc1Oc1ccc(cc1)C[C@@H]1NCCc3cc(OC)c4c(c31)Oc1cc3c(cc1O4)CCN(C)[C@H]3C2 [Compound 1, Trilobine]
IC50 [1]: 900 to 6800 nM | Reactivation fold of luciferase gene reporter in KG-1 CMV-Luc ([2]; 0.1 μM): 1.1 ± 0.1 fold | Reactivation fold of luciferase gene reporter in KG-1 CMV-Luc ([2]; 0.32 μM): 1.9 ± 1.2 fold | Reactivation fold of luciferase gene reporter in KG-1 CMV-Luc ([2]; 0.5 μM): 1.6 ± 0.8 fold | Reactivation fold of luciferase gene reporter in KG-1 CMV-Luc ([2]; 1 μM): 2.6 ± 1.4 fold | Reactivation fold of luciferase gene reporter in KG-1 CMV-Luc ([2]; 3.2 μM): 3.5 ± 1.1 fold | Reactivation fold of luciferase gene reporter in KG-1 CMV-Luc ([2]; 5 μM): 6.4 ± 0.1 fold | FI-24 h, KG1 CMV-Luc model ([2]; at 5 μM, 24 h): 5.8 ± 0.6 | Rexpression (RT qPCR) P16/HCT116 expression fold to non-treated cells [3]: 5.0 ± 2.14 fold | EC50 [4]: 2200 nM | EC50 [5]: 1200 nM | EC50 [6]: 1300 nM | Demethylation (COBRA) P16/HCT116 ([7]; after 3 days): −37% after 3 days | Demethylation (COBRA) P16/HCT116 ([7]; after 7 days): −52% after 7 days | Demethylation (COBRA) P16/HCT116 ([7]; after 21 days): −53% after 21 days | inhibition at 10 µM ([8]; 10 μM): 78% | inhibition at 32 µM ([8]; 32 μM): 94%
